The target of assay [1] is T1, GluD2-Lc(Y543Q)-(HS2)GluN1 (Rattus norvegicus, UniProt Q63226, A654T/A766F/D767R/N763E/R768S/T764L/V761T/V765F/Y543Q).
T1 construct: the function of full-length receptors as well, we introduced them into the GluD2 lurcher mutant (GluD2-Lc); expressed in transfected cells; host or cells: Xenopus laevis oocytes injected with cRNA
T1 sequence (Q63226 24-1007 Y543Q/A654T/V761T/N763E/T764L/V765F/A766F/D767R/R768S): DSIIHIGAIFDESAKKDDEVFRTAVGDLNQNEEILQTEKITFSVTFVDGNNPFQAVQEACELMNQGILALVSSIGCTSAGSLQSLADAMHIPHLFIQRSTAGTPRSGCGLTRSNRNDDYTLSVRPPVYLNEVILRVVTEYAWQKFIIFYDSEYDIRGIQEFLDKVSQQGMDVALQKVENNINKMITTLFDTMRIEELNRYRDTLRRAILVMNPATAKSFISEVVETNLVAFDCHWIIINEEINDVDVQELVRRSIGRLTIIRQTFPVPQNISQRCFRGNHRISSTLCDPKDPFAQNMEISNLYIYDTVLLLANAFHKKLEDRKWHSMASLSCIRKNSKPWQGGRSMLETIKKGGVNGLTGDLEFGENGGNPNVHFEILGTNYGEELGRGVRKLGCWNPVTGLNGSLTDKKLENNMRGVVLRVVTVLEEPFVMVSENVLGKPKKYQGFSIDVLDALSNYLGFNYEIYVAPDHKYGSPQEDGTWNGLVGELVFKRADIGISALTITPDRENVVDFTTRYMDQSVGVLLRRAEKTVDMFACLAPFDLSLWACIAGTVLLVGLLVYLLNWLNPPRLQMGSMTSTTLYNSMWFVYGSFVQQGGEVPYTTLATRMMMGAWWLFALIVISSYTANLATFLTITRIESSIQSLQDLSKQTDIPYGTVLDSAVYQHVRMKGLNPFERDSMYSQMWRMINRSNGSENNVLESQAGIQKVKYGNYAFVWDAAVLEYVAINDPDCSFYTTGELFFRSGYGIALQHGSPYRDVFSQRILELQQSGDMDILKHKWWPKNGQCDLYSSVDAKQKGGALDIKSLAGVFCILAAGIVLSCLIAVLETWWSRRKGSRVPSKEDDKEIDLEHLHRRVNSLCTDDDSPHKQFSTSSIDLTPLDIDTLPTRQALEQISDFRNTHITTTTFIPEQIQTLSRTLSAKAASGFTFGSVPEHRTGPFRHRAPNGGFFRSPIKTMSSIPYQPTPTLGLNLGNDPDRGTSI
In words: Two-electrode voltage clamp in Xenopus oocytes, inhibition of spontaneous currents. It is filed as cell-based. Particulars: fraction of spontaneous current inhibited by saturating D-serine. The text has this: (§1) All cDNAs for expression in Xenopus oocytes were cloned into the vector pSGEM[30]. Point mutants of GluD2-Lc were constructed by overlap extension PCR with mutagenic oligonucleotide primers. The GluD2-Lc-(H)GluN1 chimera was constructed by transferring the S1- and S2-encoding sequences from GluD2-LBD-(H)GluN1 to GluD2-Lc via overlap extension PCR using tail primers. The S1 and S2 sequences were transferred separately, yielding GluD2-Lc-(HS1)GluN1 and GluD2-Lc-(HS2)GluN1 constructs. GluD2-Lc-(H)GluN1 was then produced from these by another overlap extension PCR. Complementary RNA (cRNA) for injection into oocytes was synthesised from 1 μg of linearised template DNA with the mMESSAGE mMACHINE in vitro transcription kit (Ambion, Austin, TX, USA).
(§2) Oocytes were obtained by surgically removing parts of the ovaries from Xenopus laevis (Nasco, Fort Atkinson, WI, USA) anaesthetised with 1.5 g/L 3-aminobenzoic acid ethylester (Sigma, Taufkirchen, Germany). […] Oocytes were injected with 11 ng cRNA (10 ng of each cRNA for co-expression of GluN1 and GluN2A) using a nanoliter injector (WPI, Sarasota, FL, USA). Four days after cRNA injection, current responses were recorded under voltage clamp at –70 mV with a Turbo Tec-10CD amplifier (npi electronic, Tamm, Germany) controlled by Patchmaster software (HEKA, Lambrecht, Germany). Currents were filtered with a 20 Hz low-pass filter and then digitised with a sampling rate of 50 Hz. Recording electrodes were pulled from borosilicate glass (Hilgenberg, Malsfeld, Germany) with an L/M-3P-A vertical pipette puller (List-Medical), filled with 3 M KCl, and had resistances of 0.5–5 MΩ (voltage electrode) or 0.5–1.5 MΩ (current electrode). Recordings were performed in a 50 μL chamber under constant superfusion with extracellular solution at a flow rate of 3–5 mL/min. […] Finally, Ba-NFR and then NMDGR were applied again to check for reversibility.

Another assay concerns the target T2, GluD2-Lc-(HS1)GluN1 (Rattus norvegicus, UniProt Q63226, A654T/D542Y/S544G/Y543Q).
T2 construct: the function of full-length receptors as well, we introduced them into the GluD2 lurcher mutant (GluD2-Lc); expressed in transfected cells; host or cells: Xenopus laevis oocytes injected with cRNA
T2 sequence (Q63226 24-1007 D542Y/Y543Q/S544G/A654T): T1 sequence (Q63226 24-1007 Y543Q/A654T/V761T/N763E/T764L/V765F/A766F/D767R/R768S) with D519Y, S521G, T738V, E740N, L741T, F742V, F743A, R744D, S745R
The assay is described as above. Format: cell-based. Particulars: fraction of spontaneous current inhibited by saturating D-serine.
Source text: as §1, §2

Molecules are shown by their SMILES. Changes are numbered by the printed parent chain. “And” between values parts separate entries of the source, which are not always exact repeats. Identical values can stand only once.

For `N[C@H](CO)C(=O)O` [D-serine], the “D-serine efficacy Mean ± SEM” value in assay [1] was 24.1 ± 0.4%; at GluD2-Lc-(HS1)GluN1 it was 29% and 29.1 ± 1.1%.
